According to PMC4537157 (PLoS ONE, 2015):

How the values were obtained:
Type in all cases: cell-based
[1] = tested on: human newborn cord blood; assay: Whole blood cytokine assay (TNF, IL-1β ELISA), newborn cord blood; conditions: 6 h
Protocol: (§1) Assessment of TLRA activity in whole blood was completed as previously described. […] Vehicle (DMSO) was added separately as a control. Suspensions containing 200 μl/well were gently mixed by pipetting and incubating for 6 h at 37°C in a humidified incubator at 5% CO2. After culture, plates were centrifuged at 500 x g and 100–150 μl of supernatant was carefully removed by pipetting without disturbing the cell pellet. Supernatants derived from human leukocyte stimulations were assayed by enzyme-linked immunoabsorbent assay (ELISA) for TNF (BD Biosciences, San Jose, CA, USA) and IL-1β (eBiosciences, San Diego, CA). Experiments were performed in triplicates.
(§2) Compound concentrations are shown in μM. Data are shown as mean ± SEM of n = 6–8.
(§3) Compound concentrations are shown in μM/ml. Cytokine production is shown as pg/ml. (PDF) Click here for additional data file.

[2] = tested on: human adult peripheral blood; assay: Whole blood cytokine assay (TNF, IL-1β ELISA), adult peripheral blood; conditions: 6 h
Protocol: as §1, §2, §3

[3] = tested on: human newborn MoDCs; assay: TNF production by newborn monocyte-derived dendritic cells; conditions: human neonatal MoDCs, tested 0.1–10 μM, 24 h
[4] = tested on: human newborn and adult leukocytes; assay: Whole blood and MoDC assays, overall potency as summarised in the discussion; conditions: Leukocyte, Tested in both whole blood and MoDC assays
Protocol: as §1

Row | Structure (SMILES) | IL-1β production ([1]; 0.01 µM) | TNF-α production ([1]; 0.01 µM) | IL-1β production ([1]; 0.03 µM) | TNF-α production ([1]; 0.03 µM) | IL-1β production ([1]; 0.1 µM) | TNF-α production ([1]; 0.1 µM) | IL-1β production ([1]; 0.3 µM) | TNF-α production ([1]; 0.3 µM) | IL-1β production ([1]; 1 µM) | TNF-α production ([1]; 1 µM) | IL-1β production ([1]; 10 µM) | TNF-α production ([1]; 10 µM) | IL-1β production ([2]; 0.01 µM) | TNF-α production ([2]; 0.01 µM) | IL-1β production ([2]; 0.03 µM) | TNF-α production ([2]; 0.03 µM) | IL-1β production ([2]; 0.1 µM) | TNF-α production ([2]; 0.1 µM) | IL-1β production ([2]; 0.3 µM) | TNF-α production ([2]; 0.3 µM) | further results
1 | CCCCc1nc2c(N)nc3ccccc3c2n1Cc1cccc(CN)c1 [Meta-amine] | 15.63 pg/mL | 79.15 pg/mL | 15.63 pg/mL | 78.72 pg/mL | 15.63 pg/mL | 94.65 pg/mL | 15.63 pg/mL | 93.72 pg/mL | 271.87 pg/mL | 1779.40 pg/mL | 6199.29 pg/mL | 32214.43 pg/mL | 15.63 pg/mL | 23.44 pg/mL | 15.63 pg/mL | 23.44 pg/mL | 15.63 pg/mL | 20.83 pg/mL | 15.63 pg/mL | 214.57 pg/mL | IL-1β production ([2]; 1 µM): 232.86 pg/mL; TNF-α production ([2]; 1 µM): 3739.68 pg/mL; IL-1β production ([2]; 10 µM): 2699.66 pg/mL; TNF-α production ([2]; 10 µM): 19087.54 pg/mL
2 | CCCCc1nc2c(N)nc3ccccc3c2n1Cc1ccc(CN)cc1 [Para-amine] | 15.63 pg/mL | 64.05 pg/mL | 15.63 pg/mL | 120.31 pg/mL | 15.63 pg/mL | 70.49 pg/mL | 15.63 pg/mL | 381.52 pg/mL | 387.41 pg/mL | 1780.16 pg/mL | 2820.52 pg/mL | 16542.73 pg/mL | 15.63 pg/mL | 23.44 pg/mL | 15.63 pg/mL | 121.74 pg/mL | 15.63 pg/mL | 856.34 pg/mL | 15.63 pg/mL | 3653.12 pg/mL | IL-1β production ([2]; 1 µM): 419.70 pg/mL; TNF-α production ([2]; 1 µM): 6740.50 pg/mL; IL-1β production ([2]; 10 µM): 2008.09 pg/mL; TNF-α production ([2]; 10 µM): 18165.00 pg/mL
3 | CCOCc1nc2c(N)nc3ccccc3c2n1CC(C)(C)O [R848, resiquimod, reference compound] | 15.63 pg/mL | 95.80 pg/mL | 15.63 pg/mL | 84.29 pg/mL | 46.36 pg/mL | 68.30 pg/mL | 15.63 pg/mL | 210.98 pg/mL | 415.65 pg/mL | 654.85 pg/mL | 322.08 pg/mL | 1574.58 pg/mL | 15.63 pg/mL | 23.44 pg/mL | 15.63 pg/mL | 23.44 pg/mL | 14.94 pg/mL | 284.13 pg/mL | 15.63 pg/mL | 549.52 pg/mL | Concentration inducing TNF [3]: 1 to 10 µM; IL-1β production ([2]; 1 µM): 191.49 pg/mL; TNF-α production ([2]; 1 µM): 3939.41 pg/mL; IL-1β production ([2]; 10 µM): 1922.12 pg/mL; TNF-α production ([2]; 10 µM): 19454.73 pg/mL; EC50 [4]: 1000 nM
